In the data set the test system is GENE-TOX genotoxicity assays, various organisms and cells. As to the kind of experiment: GENE-TOX mutagenicity studies. Conditions: for call: Assay Type: In vivo carcinogenicity studies.
Setting [1] is: Species/Cell Type: Drosophila melanogaster, Assay Type: Aneuploidy, whole sex chromosome loss, chromosome aberrations, Assay Code: DACT, Evaluation Type: Evaluation A (Pre-1980).
[2] abbreviates: Species/Cell Type: Nonhuman, Assay Code: CCGT, Evaluation Type: Evaluation A (Pre-1980).
Setting [3] is: Species/Cell Type: Nonhuman, Assay Type: Sister-chromatid exchange (SCE) in vitro, Assay Code: SC2T, Evaluation Type: Evaluation B (Post-1980).
[4] abbreviates: Species/Cell Type: Salmonella typhimurium (one or more of the five standard strains: TA98, TA100, TA1535, TA1537, and TA1538), Assay Type: Histidine reverse gene mutation, Ames assay, Assay Code: SAL+, Evaluation Type: Evaluation A (Pre-1980).
Where [5] appears, read: Species/Cell Type: Salmonella typhimurium (one or more of the five standard strains: TA98, TA100, TA1535, TA1537, and TA1538), Assay Type: Histidine reverse gene mutation, Ames assay, Assay Code: SALT, Evaluation Type: Evaluation A (Pre-1980).
[6] abbreviates: Species/Cell Type: Mammalian polychromatic erythrocytes, Assay Type: Micronucleus test, chromosome aberrations, Assay Code: MNT+, Evaluation Type: Evaluation B (Post-1980).
Setting [7] is: Species/Cell Type: Escherichia coli polA (W3119 vs P3478), Assay Type: Rec-assay, DNA effects (bacterial DNA repair), Assay Code: RE1+, Evaluation Type: Evaluation A (Pre-1980).
Where [8] appears, read: Species/Cell Type: Salmonella typhimurium (one or more of the five standard strains: TA98, TA100, TA1535, TA1537, and TA1538), Assay Type: Histidine reverse gene mutation, Ames assay, Assay Code: SAL+*, Activation: With metabolic activation, Evaluation Type: Evaluation A (Pre-1980).
The mark [9] stands for this setting: Species/Cell Type: Nonhuman, Assay Type: Sister-chromatid exchange (SCE) in vitro, Assay Code: SC2+, Evaluation Type: Evaluation B (Post-1980).
Where [10] appears, read: Species/Cell Type: Saccharomyces cerevisiae, Assay Type: Mitotic recombination or gene conversion, Assay Code: YEC-, Evaluation Type: Evaluation A (Pre-1980).
The mark [11] stands for this setting: Species/Cell Type: Human, Assay Type: Sister-chromatid exchange (SCE) in vitro, Assay Code: SC1+D, Dose Response: With dose response, Evaluation Type: Evaluation B (Post-1980).

Molecules are shown by their SMILES. Active and inactive are the calls of the source. The rule behind the calls is not given here.

Consider `C[C@@H]1C[C@@H]([C@H](O)CC2CC(=O)NC(=O)C2)C(=O)[C@@H](C)C1`, for which the mutagenic call is “no conclusion” under setting [1]; “active; positive” (Species/Cell Type: Escherichia coli polA (W3110 vs P3478), Assay Type: Rec-assay, DNA effects (bacterial DNA repair), Assay Code: RE2+, Evaluation Type: Evaluation A (Pre-1980)); “no conclusion” (Species/Cell Type: Escherichia coli polA (W3119 vs P3478), Assay Type: Rec-assay, DNA effects (bacterial DNA repair), Assay Code: RE1T, Evaluation Type: Evaluation A (Pre-1980)); “no conclusion” (Species/Cell Type: Mammalian polychromatic erythrocytes, Assay Type: Micronucleus test, chromosome aberrations, Assay Code: MNTT, Evaluation Type: Evaluation A (Pre-1980)); “active; positive” (Species/Cell Type: Mouse, Sex: Male, Assay Type: Sperm morphology, Assay Code: SPI+, Evaluation Type: Evaluation A (Pre-1980)); “inactive; negative” (Species/Cell Type: Neurospora crassa, Assay Type: Aneuploidy, chromosome aberrations, Assay Code: NEN-, Evaluation Type: Evaluation A (Pre-1980)). For the same molecule, the mutagenic call was “no conclusion” under setting [3] and “active; positive” (Species/Cell Type: Vicia faba, Assay Type: Chromosome aberrations, Assay Code: VIC+, Evaluation Type: Evaluation A (Pre-1980)). The call under setting [2] is given as “no conclusion”.

On to `O=[N+]([O-])c1ccc(N2CCN(Cc3ccccc3)CC2)c2c1no[n+]2[O-]`, for which the mutagenic call under setting [4] was “active; positive”.

On to `Cc1c2c(cc3ccccc13)-c1ccccc1C(O)C2O` (configuration not stated), for which the mutagenic call is “inactive; negative” (Species/Cell Type: Chinese hamster lung (V79) cells, Assay Type: Forward gene mutation at the HPRT or ouabain locus, Assay Code: V79-*, Activation: With metabolic activation, Evaluation Type: Evaluation A (Pre-1980)); “no conclusion” (Species/Cell Type: Nonhuman, Assay Type: Sister-chromatid exchange (SCE) in vitro, Assay Code: SC2T, Evaluation Type: Evaluation A (Pre-1980)); “no conclusion” under setting [5]. Under setting [2], the call is on record as “no conclusion”.

Regarding `Cc1nc(N(C)C)nc(OC(=O)N(C)C)c1C`, the mutagenic call (Species/Cell Type: Aspergillus nidulans, Assay Type: Aneuploidy, chromosome aberrations, Assay Code: ASN-, Evaluation Type: Evaluation A (Pre-1980)) is “inactive; negative”.

In the case of `CCCCOc1ccc2nc3cc(Cl)ccc3c(NCCCN(CC)CCCl)c2n1`, the mutagenic call (Species/Cell Type: Chinese hamster ovary (CHO) cells, Assay Type: Forward gene mutation at the HPRT locus, Assay Code: CHO+, Evaluation Type: Evaluation B (Post-1980)) is “active; positive”.

For `Clc1ccc(Cl)c(Cl)c1`, the mutagenic call under setting [6] is “active; positive”.

On to `OCCBr`, for which the mutagenic call was “active; positive” under setting [7]; “inactive; negative” (Species/Cell Type: Mouse, Sex: Male, Assay Type: Sperm morphology, Assay Code: SPI-, Evaluation Type: Evaluation A (Pre-1980)); “active; positive” under setting [4]; “active; positive” (Species/Cell Type: Tradescantia species, Assay Type: Gene mutation, Assay Code: TRM+D, Dose Response: With dose response, Evaluation Type: Evaluation A (Pre-1980)).

Turning to `Cc1cc(-c2ccc(N)c(C)c2)ccc1N`, the mutagenic call (Species/Cell Type: Fischer rat embryo (RLV/1706) cells, Assay Type: Cell transformation, viral enhanced, Assay Code: CTR+, Evaluation Type: Evaluation A (Pre-1980)) was “active; positive”; the mutagenic call (Species/Cell Type: Human diploid fibroblasts, Assay Type: Unscheduled DNA synthesis (UDS) in vitro, DNA effects, Assay Code: UDHT, Evaluation Type: Evaluation A (Pre-1980)) is “no conclusion”; the mutagenic call (Species/Cell Type: Mammalian polychromatic erythrocytes, Assay Type: Micronucleus test, chromosome aberrations, Assay Code: MNT+, Evaluation Type: Evaluation A (Pre-1980)) is “active; positive”; the mutagenic call (Species/Cell Type: Nonhuman, Assay Type: Sister-chromatid exchange (SCE) in vitro, Assay Code: SC2+D, Dose Response: With dose response, Evaluation Type: Evaluation B (Post-1980)) is “active; positive”; the mutagenic call under setting [8] was “active; positive”. The call (Species/Cell Type: Nonhuman, Assay Code: CCG+, Evaluation Type: Evaluation A (Pre-1980)) is “active; positive”.

Regarding `CC(C)(O)C(Cl)(Cl)Cl`, the mutagenic call (Species/Cell Type: Mammalian polychromatic erythrocytes, Assay Type: Micronucleus test, chromosome aberrations, Assay Code: MNTT, Evaluation Type: Evaluation B (Post-1980)) is “no conclusion”.

With `Oc1c(Cl)cccc1Cl`, the mutagenic call (Species/Cell Type: Allium cepa, Assay Type: Chromosome aberrations, Assay Code: ALC-, Evaluation Type: Evaluation A (Pre-1980)) is “inactive; negative”.

In the case of `O=C1c2cc(O)cc(O)c2C(=O)c2c1cc1c(c2O)[C@@H]2C=CO[C@@H]2O1`, the mutagenic call under setting [8] is “active; positive”.

On to `COC1OC[C@@H](C(C)=O)[C@H]1C` (some centres not stated), for which the mutagenic call under setting [3] is reported as “no conclusion”.

As to `O[C@H]1[C@H]2c3cc4c(cc3CN3CCC(=C[C@@H]1O)[C@H]23)OCO4`, the mutagenic call under setting [6] was “active; positive”.

As for `N=c1ccn(O)c2ccccc12`, the mutagenic call (Species/Cell Type: Escherichia coli polA (W3119 vs P3478), Assay Type: Rec-assay, DNA effects (bacterial DNA repair), Assay Code: RE1-, Evaluation Type: Evaluation A (Pre-1980)) is “inactive; negative”; the mutagenic call (Species/Cell Type: Nonhuman, Assay Type: Chromosome aberrations in vitro, Assay Code: CY&+D, Dose Response: With dose response, Evaluation Type: Evaluation A (Pre-1980)) is “active; positive”; the mutagenic call (Species/Cell Type: Nonhuman, Assay Type: Sister-chromatid exchange (SCE) in vitro, Assay Code: SC2+D, Dose Response: With dose response, Evaluation Type: Evaluation A (Pre-1980)) was “active; positive”. Besides, the call under setting [2] was “no conclusion”.

For `N[C@@H](CC(=O)O)C(=O)O`, the mutagenic call was “active; positive” (Species/Cell Type: Allium cepa, Assay Type: Chromosome aberrations, Assay Code: ALC+D, Dose Response: With dose response, Evaluation Type: Evaluation A (Pre-1980)) and “active; positive” (Species/Cell Type: Human, Sex: Male, Assay Type: Sperm morphology, Assay Code: SPH+, Evaluation Type: Evaluation A (Pre-1980)).

Take `Cc1ccc2cc3ccc4ccccc4c3cc2c1`: the mutagenic call is, setting by setting: under setting [9], “active; positive”; under setting [8], “active; positive”; (Species/Cell Type: Syrian hamster embryo (SHE) cells, Assay Type: Cell transformation, clonal assay, Assay Code: CTC+, Evaluation Type: Evaluation A (Pre-1980)) “active; positive”.

Regarding `CCCCCCN(N=O)C(N)=O`, the mutagenic call under setting [4] is “active; positive”.

As for `C#CC(C)N(C)C(=O)Nc1ccc(Cl)cc1` (configuration not stated), under setting [10], the mutagenic call was “inactive; negative”.

On to `O=c1[nH]c(=O)n([C@H]2C[C@H](O)[C@@H](COP(=O)(O)O)O2)cc1[N+](=O)[O-]`, for which the mutagenic call was “active; positive” (Species/Cell Type: Human lymphocytes, Assay Type: Sister-chromatid exchange (SCE) in vitro, Assay Code: SCL+D, Dose Response: With dose response, Evaluation Type: Evaluation B (Post-1980)) and “active; positive” under setting [11].

For `N#Cc1cccc2c([N+](=O)[O-])cccc12`, the mutagenic call is “no conclusion” (Species/Cell Type: Bacillus subtilis (H17 vs M45T), Assay Type: Rec-assay, spot test, DNA effects (bacterial DNA repair), Assay Code: REXT, Evaluation Type: Evaluation A (Pre-1980)); “inactive; negative” (Species/Cell Type: Escherichia coli WP2, Assay Type: Tryptophan reverse gene mutation, Assay Code: WP2-, Evaluation Type: Evaluation A (Pre-1980)); “active; positive” (Species/Cell Type: Escherichia coli WP2 UVRA, Assay Type: Tryptophan reverse gene mutation, Assay Code: WPU+, Evaluation Type: Evaluation A (Pre-1980)); “active; positive” under setting [9]; “active; positive” under setting [4].

In the case of `Nc1ccc2cc3ccccc3nc2c1`, the mutagenic call (Species/Cell Type: Mouse (BALB/c-3T3) cells, Assay Type: Cell transformation, Assay Code: CTB-, Evaluation Type: Evaluation A (Pre-1980)) is “inactive; negative”.

With `O=c1[nH]c2c(c(=O)n1C1CCCCC1)CCC2` (tested in a mixture with another compound), under setting [10], the mutagenic call is “inactive; negative”.

Consider `O=NN1CCC(Cl)C(Cl)C1` (configuration not stated), for which the mutagenic call is, setting by setting: (Species/Cell Type: Drosophila melanogaster, Assay Type: Aneuploidy, partial sex chromosome loss, chromosome aberrations, Assay Code: DAPT, Evaluation Type: Evaluation A (Pre-1980)) “no conclusion”; under setting [1], “no conclusion”; (Species/Cell Type: Drosophila melanogaster, Assay Type: Sex-linked recessive lethal gene mutation, Assay Code: SRL+, Evaluation Type: Evaluation A (Pre-1980)) “active; positive”.

Turning to `CC(C)C(Br)Br`, the mutagenic call under setting [7] is “active; positive”.

Take `C/C=C(\C(=C/C)c1ccc(O)cc1)c1ccc(O)cc1`: the mutagenic call under setting [11] was “active; positive”.

Consider `O=c1c(O)c(-c2ccc(O)cc2)oc2cc(O)cc(O)c12`, for which the mutagenic call runs as follows: under setting [6], “active; positive”; (Species/Cell Type: Nonhuman, Assay Type: Sister-chromatid exchange (SCE) in vitro, Assay Code: SC2+D*, Activation: With metabolic activation, Dose Response: With dose response, Evaluation Type: Evaluation B (Post-1980)) “active; positive”.

On to `CC(=O)OC(c1ccc2c(c1)OCO2)C1CO1` (configuration not stated), for which the mutagenic call under setting [4] was “active; positive”.

`O=[N+]([O-])c1ccc2ncccc2c1`: the mutagenic call under setting [4] was “active; positive”.

`CCCCCC(=O)c1c(O)cc2c(c1O)C(=O)c1c(O)cc(O)cc1C2=O`: the mutagenic call under setting [5] is listed as “no conclusion”.

(Values after PubChem BioAssay AID1259408 (Genetic Toxicology Data Bank (GENE-TOX), 2018).)
